What is called IC50 is the midpoint of a concentration-inhibition curve.

Our source for the IC50 values is patent publication US20260042764A1, “COMPOSITIONS AND METHODS FOR INHIBITION OF KRAS” (TheRas, Inc., priority 2022, published 2026).

Assay [1] has as its target T1, Avi-KRAS WT (1-169) GppNHp/RAF1 RBD-3xFLAG (52-151) (Homo sapiens, UniProt P01116).
T1 construct: Avi-KRAS WT (1-169)
Briefly: Raf1-KRAS WT-GppNHP disruption HTRF assay (Biological Example 1). As to conditions: KRAS WT, GppNHp-loaded; class symbols. Format: binding. An outline of the steps: (§1)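 Compounds were tested for disruption of KRAS–RAF1 RBD binding by HTRF in 50 mM Tris pH 7.5, 100 mM NaCl, 5 mM MgCl2, 0.1% BSA, 0.01% Tween, 10% DMSO. Protein mix was incubated 1 h at room temperature with shaking, then detection reagents added for another 1 h. Activity expressed as percent of DMSO control.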

Assay [2] deals with T2, Avi-KRAS G12V (1-169) GppNHp/RAF1 RBD-3xFLAG (52-151) (Homo sapiens, UniProt P01116, G12V).
T2 construct: Avi-KRAS G12V (1-169)
In words: Raf1-KRAS G12V-GppNHP disruption HTRF assay (Biological Example 1). Conditions: KRAS G12V, GppNHp-loaded; class symbols. Format: binding. An outline of the steps:
as §1
(In general: TR-FRET usually uses a lanthanide donor and a delayed reading to cut background.)

The target in assay [3] is T3, Avi-KRAS G12R (1-169) GppNHp/RAF1 RBD-3xFLAG (52-151) (Homo sapiens, UniProt P01116, G12R).
T3 construct: Avi-KRAS G12R (1-169)
In words: Raf1-KRAS G12R-GppNHP disruption HTRF assay (Biological Example 1). Conditions: KRAS G12R, GppNHp-loaded; class symbols. The format is binding. An outline of the steps: as §1

A further assay relates to SW620 cells (KRAS G12V). In words: Cell-based pERK HTRF assay in SW620 cell (Biological Example 4). Conditions: Homo sapiens, SW-620, SW620 (KRAS G12V) cells, pERK HTRF; class symbols. An outline of the steps:
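This assay measures inhibition of ERK phosphorylation downstream of KRAS G12V in intact SW620 cells. Compounds are applied for 4 h over nine half-log concentrations starting at 1 μM, and pERK is quantified by HTRF.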

Assay [4] addresses T4, Avi-KRAS G12D (1-169) GppNHp/RAF1 RBD-3xFLAG (52-151) (Homo sapiens, UniProt P01116, G12D).
T4 construct: Avi-KRAS G12D (1-169)
In words: Raf1-KRAS G12D-GppNHP disruption HTRF assay (Biological Example 1). Format: binding. Conditions: KRAS G12D, GppNHp-loaded; class symbols. An outline of the steps:
as §1

A further assay concerns GP2d cells (KRAS G12D). Briefly: Cell-based pERK HTRF assay in GP2d cell (Biological Example 2). As to conditions: GP2d, GP2d (KRAS G12D) cells, pERK HTRF; class symbols. An outline of the steps: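 Treatment with test compounds lasted one hour in DMEM containing 10% FBS, with DMSO held at 0.25%. Dilution series: 9 points, half-log spacing, highest 1 μM or 100 nM. Lysates were incubated 4–24 h at room temperature with antibody mix, then HTRF was read at 320 nm excitation.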

SMILES strings stand for the structures.

T2 sequence (P01116 1-169 isoform P01116-2 G12V): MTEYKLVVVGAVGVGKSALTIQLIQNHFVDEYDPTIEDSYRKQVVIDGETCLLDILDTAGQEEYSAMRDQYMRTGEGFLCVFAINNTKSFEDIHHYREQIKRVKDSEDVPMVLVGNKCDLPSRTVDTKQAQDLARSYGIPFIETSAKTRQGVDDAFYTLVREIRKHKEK
T1 sequence (P01116 1-169 isoform P01116-2): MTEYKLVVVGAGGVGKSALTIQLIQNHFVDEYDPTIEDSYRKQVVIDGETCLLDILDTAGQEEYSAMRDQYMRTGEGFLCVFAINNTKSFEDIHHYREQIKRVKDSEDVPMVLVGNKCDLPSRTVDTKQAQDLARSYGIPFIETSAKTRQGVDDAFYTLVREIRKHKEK
T4 sequence (P01116 1-169 isoform P01116-2 G12D): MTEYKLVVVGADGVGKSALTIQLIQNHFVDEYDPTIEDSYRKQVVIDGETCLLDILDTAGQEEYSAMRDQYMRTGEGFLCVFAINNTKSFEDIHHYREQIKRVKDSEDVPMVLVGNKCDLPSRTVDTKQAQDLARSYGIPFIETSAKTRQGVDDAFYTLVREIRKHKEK
T3 sequence (P01116 1-169 isoform P01116-2 G12R): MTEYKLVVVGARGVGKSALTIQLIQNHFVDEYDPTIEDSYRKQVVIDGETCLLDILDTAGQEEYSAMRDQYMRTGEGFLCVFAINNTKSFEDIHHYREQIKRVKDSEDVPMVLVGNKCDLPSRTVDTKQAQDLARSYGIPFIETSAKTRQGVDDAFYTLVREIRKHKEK

As to `CCN(c1nc(OC[C@@]23CCCN2C[C@H](F)C3)nc2c(F)c(-c3ccc(F)c4sc(N)c(C#N)c34)c(C(F)(F)F)cc12)[C@H]1CCN(C(=O)[C@@H]2CC2(F)F)[C@@H]1C` (atropisomer, axis not shown) [Compound 693], the half-maximal inhibitory concentration (IC50) (in assay [1]; in assay [2]; in assay [3]; in the assay with SW620 cells (KRAS G12V); in assay [4]; with GP2d cells (KRAS G12D)) was less than 100 nM each time.
With `CCN1CC[C@H](N(CC)c2nc(OC[C@@]34CCCN3C[C@H](F)C4)nc3c(F)c(-c4ccc(F)c5sc(N)c(C#N)c45)c(C(F)(F)F)cc23)C1=O` (atropisomer, axis not shown) [Compound 694], the half-inhibitory concentration (IC50) in assay [1] was 100 to 1000 nM; in assay [2], 100 to 1000 nM; in assay [3] it was 100 to 1000 nM; in the assay with SW620 cells (KRAS G12V), less than 100 nM; in assay [4] it was less than 100 nM; with GP2d cells (KRAS G12D), less than 100 nM.
On to `CCN1CC[C@@H](N(CC)c2nc(OC[C@@]34CCCN3C[C@H](F)C4)nc3c(F)c(-c4ccc(F)c5sc(N)c(C#N)c45)c(C(F)(F)F)cc23)C1=O` (atropisomer, axis not shown) [Compound 695], for which the IC50 is 100 to 1000 nM in assay [1]; 100 to 1000 nM in assay [2]; 100 to 1000 nM in assay [3]; less than 100 nM in the assay on SW620 cells (KRAS G12V); 100 to 1000 nM in assay [4]; less than 100 nM in the assay on GP2d cells (KRAS G12D).
Regarding `CN(Cc1cccnc1)c1nc(OC[C@@]23CCCN2C[C@H](F)C3)nc2c(F)c(-c3ccc(F)c4sc(N)c(C#N)c34)c(C(F)(F)F)cc12` (atropisomer, axis not shown) [Compound 698], the IC50 in assay [1] was 100 to 1000 nM; in assay [2], 100 to 1000 nM; in assay [3] it was 100 to 1000 nM; with SW620 cells (KRAS G12V), less than 100 nM; in assay [4] it was 100 to 1000 nM; with GP2d cells (KRAS G12D), less than 100 nM.
Consider `CCN1C[C@H](N(CC)c2nc(OC[C@@]34CCCN3C[C@H](F)C4)nc3c(F)c(-c4ccc(F)c5sc(N)c(C#N)c45)c(C(F)(F)F)cc23)CC1=O` (atropisomer, axis not shown) [Compound 699], for which the IC50 was 100 to 1000 nM in assay [1]; 100 to 1000 nM in assay [2]; 100 to 1000 nM in assay [3]; less than 100 nM with SW620 cells (KRAS G12V); 100 to 1000 nM in assay [4]; less than 100 nM in the assay on GP2d cells (KRAS G12D).
For the compound `[2H]C([2H])([2H])C([2H])(C(=O)N1CC[C@H](N(CC)c2nc(OC[C@@]34CCCN3C[C@H](F)C4)nc3c(F)c(-c4ccc(F)c5sc(N)c(C#N)c45)c(C(F)(F)F)cc23)C1)C([2H])([2H])[2H]` (atropisomer, axis not shown) [Compound 707], the IC50 (in assay [1]; in assay [2]; in assay [3]; in the assay on SW620 cells (KRAS G12V); in assay [4]; in the assay with GP2d cells (KRAS G12D)) was less than 100 nM throughout.
Consider `CCN(c1nc(OC[C@@]23CCCN2C[C@H](F)C3)nc2c(F)c(-c3ccc(F)c4sc(N)c(C#N)c34)c(C(F)(F)F)cc12)[C@H]1CCN(C(=O)c2cnco2)C1` (atropisomer, axis not shown) [Compound 708], for which the IC50 (in assay [1]; in assay [2]; in assay [3]; in the assay with SW620 cells (KRAS G12V); in assay [4]; in the assay with GP2d cells (KRAS G12D)) was less than 100 nM in each case.
Turning to `CCN(c1nc(OC[C@@]23CCCN2C[C@H](F)C3)nc2c(F)c(-c3ccc(F)c4sc(N)c(C#N)c34)c(C(F)(F)F)cc12)[C@H]1CCN(C(=O)[C@@H](C)CF)C1` (atropisomer, axis not shown) [Compound 710], the IC50 in assay [1] is less than 100 nM; in assay [2], 100 to 1000 nM; in assay [3] it was less than 100 nM; in the assay on SW620 cells (KRAS G12V), less than 100 nM; in assay [4], less than 100 nM; with GP2d cells (KRAS G12D), less than 100 nM.
As to `CCN(c1nc(OC[C@@]23CCCN2C[C@H](F)C3)nc2c(F)c(-c3ccc(F)c4sc(N)c(C#N)c34)c(C(F)(F)F)cc12)[C@H]1C[C@@H](COC)N(C(=O)N(C)C)C1` (atropisomer, axis not shown) [Compound 713], the half-inhibitory concentration (IC50) in assay [1] is 100 to 1000 nM; in assay [2] it was 100 to 1000 nM; in assay [3] it was 100 to 1000 nM; in the assay with SW620 cells (KRAS G12V), less than 100 nM; in assay [4] it was 100 to 1000 nM; in the assay with GP2d cells (KRAS G12D) it was less than 100 nM.
With `CCN(c1nc(OC[C@@]23CCCN2C[C@H](F)C3)nc2c(F)c(-c3ccc(F)c4sc(N)c(C#N)c34)c(C(F)(F)F)cc12)[C@H]1C[C@@H](COC)N(C(=O)OC)C1` (atropisomer, axis not shown) [Compound 714], the IC50 was 100 to 1000 nM in assay [1]; 100 to 1000 nM in assay [2]; 100 to 1000 nM in assay [3]; less than 100 nM in the assay with SW620 cells (KRAS G12V); 100 to 1000 nM in assay [4]; less than 100 nM with GP2d cells (KRAS G12D).
Turning to `COC(=O)N1CC[C@H]2[C@@H]1CN2c1nc(OC[C@@]23CCCN2C[C@H](F)C3)nc2c(F)c(-c3ccc(F)c4sc(N)c(C#N)c34)c(C(F)(F)F)cc12` (atropisomer, axis not shown) [Compound 716], the IC50 is 1000 to 10000 nM in assay [1]; more than 10000 nM in assay [2]; more than 10000 nM in assay [3]; 100 to 1000 nM in the assay on SW620 cells (KRAS G12V); 1000 to 10000 nM in assay [4]; less than 100 nM in the assay on GP2d cells (KRAS G12D).
As for `CCN(c1nc(OC[C@@]23CCCN2C[C@H](F)C3)nc2c(F)c(-c3ccc(F)c4sc(N)c(C#N)c34)c(C(F)(F)F)cc12)[C@H]1C[C@H](COC)N(C(=O)N(C)C)C1` (atropisomer, axis not shown) [Compound 717], the IC50 in assay [1] is 100 to 1000 nM; in assay [2], 100 to 1000 nM; in assay [3], 100 to 1000 nM; in the assay with SW620 cells (KRAS G12V), less than 100 nM; in assay [4], 100 to 1000 nM; in the assay with GP2d cells (KRAS G12D), less than 100 nM.
In the case of `CCN(c1nc(OC[C@@]23CCCN2C[C@H](F)C3)nc2c(F)c(-c3ccc(F)c4sc(N)c(C#N)c34)c(C(F)(F)F)cc12)[C@H]1C[C@H](COC)N(C(=O)OC)C1` (atropisomer, axis not shown) [Compound 718], the IC50 (in assay [1]; in assay [2]; in assay [3]; in the assay on SW620 cells (KRAS G12V); in assay [4]; with GP2d cells (KRAS G12D)) was less than 100 nM in each case.
With `CCN(c1nc(OC[C@@]23CCCN2C[C@H](F)C3)nc2c(F)c(-c3ccc(F)c4sc(N)c(C#N)c34)c(C(F)(F)F)cc12)[C@H]1CCN(C(=O)c2cocn2)C1` (atropisomer, axis not shown) [Compound 719], the IC50 (in assay [1]; in assay [2]; in assay [3]; with SW620 cells (KRAS G12V); in assay [4]; in the assay on GP2d cells (KRAS G12D)) was less than 100 nM throughout.
Consider `CCN(c1nc(OC[C@@]23CCCN2C[C@H](F)C3)nc2c(F)c(-c3ccc(F)c4sc(N)c(C#N)c34)c(C(F)(F)F)cc12)[C@H]1CCN(C(=O)OC2CCN(C(C)=O)CC2)C1` (atropisomer, axis not shown) [Compound 720], for which the IC50 (in assay [1]; in assay [2]; in assay [3]; with SW620 cells (KRAS G12V); in assay [4]; in the assay on GP2d cells (KRAS G12D)) was less than 100 nM in each case.
On to `CCN(c1nc(OC[C@@]23CCCN2C[C@H](F)C3)nc2c(F)c(-c3ccc(F)c4sc(N)c(C#N)c34)c(C(F)(F)F)cc12)[C@H]1CCN(C(=O)OC2CN(C(C)=O)C2)C1` (atropisomer, axis not shown) [Compound 721], for which the half-inhibitory concentration (IC50) (in assay [1]; in assay [2]; in assay [3]; in the assay with SW620 cells (KRAS G12V); in assay [4]; with GP2d cells (KRAS G12D)) was less than 100 nM in each case.
Regarding `CCN(c1nc(OC[C@@]23CCCN2C[C@H](F)C3)nc2c(F)c(-c3ccc(F)c4sc(N)c(C#N)c34)c(C(F)(F)F)cc12)[C@H]1CCN(C(=O)c2ccsn2)C1` (atropisomer, axis not shown) [Compound 722], the IC50 (in assay [1]; in assay [2]; in assay [3]; in the assay on SW620 cells (KRAS G12V); in assay [4]; in the assay on GP2d cells (KRAS G12D)) was less than 100 nM throughout.
In the case of `CCN(c1nc(OC[C@@]23CCCN2C[C@H](F)C3)nc2c(F)c(-c3ccc(F)c4sc(N)c(C#N)c34)c(C(F)(F)F)cc12)[C@H]1CCN(C(=O)c2ccnn2C)C1` (atropisomer, axis not shown) [Compound 723], the IC50 (in assay [1]; in assay [2]; in assay [3]; with SW620 cells (KRAS G12V); in assay [4]; in the assay on GP2d cells (KRAS G12D)) was less than 100 nM in each case.
